Test [1] concerns the target T1, human EP2 receptor (Homo sapiens, UniProt P43116).
T1 construct: purchased Euroscreen S.A. ES-562-M; host or cells: HEK293 cells
As to the kind of experiment: Measurement of EP2 receptor binding affinity ([3H]PGE2 displacement). The conditions noted are these: read-out: Ki value of EP2 receptor binding affinity. On the procedure: (§1) Measurement of EP2 receptor binding affinity was carried out according to the method of Abramovitz et al. (Biochimica et Biophysica Acta, 1483, 285 (2000)). […] The membrane fraction was recovered on glass fiber filter paper (GF/B, available from Whatman PLC) using a cell harvester […], available from Brandel Inc.), and after washing with a buffer solution (10 mM MES-KOH (pH 6.0), 10 mM MgCl2), radioactivity was measured with a liquid scintillation analyzer (2000CA, available from Packard). […] The dissociation constant (Kd value) was calculated by Scatchard analysis.

In test [2] the target is T1, human EP2 receptor. The test can be described thus: Measurement of EP2 agonist activity (cAMP amount in cells). It counts as cell-based. The conditions noted are these: HEK 293 cells expressing human EP2 receptor, cAMP increase, 30 minutes. The procedure: Measurement of EP2 agonist activity was carried out according to the method of Wilson et al. (European Journal of Pharmacology, 501, 49 (2004)). […] On the next day, the medium was replaced with serum-free MEM medium containing 3-isobutyl-1-methylxanthine (final concentration: 500 μM) and after culturing for 30 minutes, a test compound dissolved in dimethylsulfoxide was added and the medium was allowed to stand in a carbon dioxide gas incubator. After 30 minutes, an amount of cAMP in the cells was measured with a cAMP Biotrak EIA System kit (available from GE Healthcare Bioscience).

The target in test [3] is T2, human EP1 receptor (Homo sapiens, UniProt P34995).
T2 sequence (P34995 1-402): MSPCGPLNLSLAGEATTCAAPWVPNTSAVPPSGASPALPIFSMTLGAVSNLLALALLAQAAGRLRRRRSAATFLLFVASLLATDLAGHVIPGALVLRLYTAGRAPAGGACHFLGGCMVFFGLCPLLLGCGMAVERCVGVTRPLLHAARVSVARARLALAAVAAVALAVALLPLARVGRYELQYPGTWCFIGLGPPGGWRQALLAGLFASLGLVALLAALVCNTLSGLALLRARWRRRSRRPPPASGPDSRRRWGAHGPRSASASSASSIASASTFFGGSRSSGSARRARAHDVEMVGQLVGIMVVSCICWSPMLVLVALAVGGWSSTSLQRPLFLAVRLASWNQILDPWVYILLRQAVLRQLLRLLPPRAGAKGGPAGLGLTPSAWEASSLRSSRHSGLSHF
As to the kind of experiment: Measurement of EP1 receptor binding affinity ([3H]PGE2 displacement). The conditions noted are these: membrane fraction of Chem-1 cells expressing human EP1 receptor, [3H]PGE2 10 nM. The procedure: as §1, with “EP1” for “EP2”, “PLC) pretreated with 0.3% polyethyleneimine by” for “PLC)”

Counter-ions that a name gives are not always drawn.

T1 sequence (P43116 whole entry): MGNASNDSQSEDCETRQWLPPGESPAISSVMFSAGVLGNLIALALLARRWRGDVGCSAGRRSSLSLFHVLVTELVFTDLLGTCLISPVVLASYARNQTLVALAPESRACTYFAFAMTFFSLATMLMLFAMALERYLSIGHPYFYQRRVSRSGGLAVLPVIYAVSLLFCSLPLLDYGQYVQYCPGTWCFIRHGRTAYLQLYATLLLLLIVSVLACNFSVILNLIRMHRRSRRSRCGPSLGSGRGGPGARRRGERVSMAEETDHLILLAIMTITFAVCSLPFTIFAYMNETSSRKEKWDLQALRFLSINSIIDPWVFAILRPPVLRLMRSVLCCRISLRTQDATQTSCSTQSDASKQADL

Broadly, the Ki is a measure of affinity in units of concentration, obtained from inhibition or displacement. One may read the EC50 as the midpoint of the concentration-response curve. Lower therefore signals higher potency in that assay. For the compound `CCCCC(C)(C)c1ccc(CN(Cc2cccc(NCC(=O)O)n2)S(=O)(=O)c2ccc(F)cc2)s1` [Example 3, (6-{(4-Fluorobenzenesulfonyl)[5-(1,1-dimethylpentyl)thiophen-2-ylmethyl]aminomethyl}pyridin-2-ylamino)acetic acid], the inhibitory constant (Ki) in test [1] was found to be 1.8 nM. This compound came in with an EC50 in test [2] of 6 nM.

`CCC(C)(C)c1ccc(CN(Cc2cccc(NCC(=O)O)n2)S(=O)(=O)c2ccccn2)s1` [Example 4, {6-[(5-tert-Pentylthiophen-2-ylmethyl)(pyridin-2-ylsulfonyl)aminomethyl]pyridin-2-ylamino}acetic acid]: in test [1], the inhibition constant Ki worked out at 3.4 nM. Also, in test [2], it took 7 nM to reach a half-maximal effect (EC50).

`CC1(c2ccc(CN(Cc3cccc(NCC(=O)O)n3)S(=O)(=O)c3cccnc3)cc2)CC1` [Example 5, (6-{[4-(1-Methylcyclopropyl)benzyl](pyridin-3-ylsulfonyl)aminomethyl}pyridin-2-ylamino)acetic acid hydrochloride]: the 50% effective concentration (EC50) in test [2] turned out to be 2.6 nM.

On to `CCC1(c2ccc(CN(Cc3cccc(NCC(=O)O)n3)S(=O)(=O)c3ccccn3)cc2)CC1` [Example 6, (6-{[4-(1-Ethylcyclopropyl)benzyl](pyridin-2-ylsulfonyl)aminomethyl}pyridin-2-ylamino)acetic acid], for which a half-maximal response in test [2] (EC50) required 5.4 nM.

As to `CCC1(c2ccc(CN(Cc3cccc(NCC(=O)O)n3)S(=O)(=O)c3cccnc3)cc2)CC1` [Example 7, (6-{[4-(1-Ethylcyclopropyl)benzyl](pyridin-3-ylsulfonyl)aminomethyl}pyridin-2-ylamino)acetic acid], in test [1], the inhibitory constant (Ki) amounted to 8.3 nM. This compound also showed a concentration for a half-maximal effect (EC50) in test [2] of 4.5 nM.

In the case of `CCCCC1(c2ccc(CN(Cc3cccc(NCC(=O)O)n3)S(=O)(=O)c3cccnc3)cc2)CC1` [Example 10, 6-{[4-(1-Butylcyclopropyl)benzyl](pyridin-3-ylsulfonyl)aminomethyl}pyridin-2-ylamino)acetic acid hydrochloride], the Ki in test [1] is 11 nM. In test [2], the response was half-maximal at 4.2 nM (EC50).

On to `CCC1(c2ccc(CN(Cc3cccc(NCC(=O)O)n3)S(=O)(=O)c3ccc(F)cc3)cc2)CC1` [Example 14, (6-{[4-(1-Ethylcyclopropyl)benzyl](4-fluorobenzenesulfonyl)aminomethyl}pyridin-2-ylamino)acetic acid], for which the EC50 in test [2] was determined as 8 nM.

On to `CCCCC1(c2ccc(CN(Cc3cccc(NCC(=O)O)n3)S(=O)(=O)c3ccncc3)cc2)CC1` [Example 16, (6-{[4-(1-Butylcyclopropyl)benzyl](pyridin-4-ylsulfonyl)aminomethyl}pyridin-2-ylamino)acetic acid], for which, in test [1], the Ki came to 6.1 nM. Also, in test [2], the EC50 was 6.3 nM.

In test [2], `CC(C)(C)c1ccc(CN(Cc2cccc(NCC(=O)O)n2)S(=O)(=O)c2ccccc2)cc1` [Example 21, {6-[(Benzenesulfonyl)(4-tert-butylbenzyl)aminomethyl]pyridin-2-ylamino}acetic acid hydrochloride] displayed a 50% effective concentration (EC50) of 4.3 nM. That is a single-digit nanomolar value.

`CC(C)(C)c1ccc(CN(Cc2cccc(NCC(=O)O)n2)S(=O)(=O)c2ccccn2)cc1` [Example 23, {6-[(4-tert-Butylbenzyl)(pyridin-2-ylsulfonyl)aminomethyl]pyridin-2-ylamino}acetic acid hydrochloride] yielded an EC50 in test [2] of 2.7 nM.

Consider `CCCC=C(C)c1ccc(CN(Cc2cccc(NCC(=O)O)n2)S(=O)(=O)c2ccccn2)cc1` [Example 24, (6-{[4-(1-Methyl-1-pentenyl)benzyl](pyridin-2-ylsulfonyl)aminomethyl}pyridin-2-ylamino)acetic acid], for which the concentration for a half-maximal effect (EC50) in test [2] was 4.5 nM.

In test [2], `CCC(CC)c1ccc(CN(Cc2cccc(NCC(=O)O)n2)S(=O)(=O)c2cccnc2)cc1` [Example 27, (6-{[4-(1-Ethylpropyl)benzyl](pyridin-3-ylsulfonyl)aminomethyl}pyridin-2-ylamino)-acetic acid] had a half-maximal effective concentration (EC50) of 6.9 nM.

Turning to `CCC(C)(C)c1ccc(CN(Cc2cccc(NCC(=O)O)n2)S(=O)(=O)c2ccccn2)cc1` [Example 28, {6-[(4-tert-Pentylbenzyl)(pyridin-2-ylsulfonyl)aminomethyl]pyridin-2-ylamino}acetic acid hydrochloride], the inhibition constant (Ki) in test [1] was 9.8 nM. In test [2], this compound showed a concentration for a half-maximal effect (EC50) of 6.4 nM.

In turn, `CC(C)(C)Cc1ccc(CN(Cc2cccc(NCC(=O)O)n2)S(=O)(=O)c2ccccn2)cc1` [Example 29, {6-[(4-Neopentylbenzyl)(pyridin-2-ylsulfonyl)aminomethyl]pyridin-2-ylamino}acetic acid hydrochloride] had an EC50 in test [2] of 5 nM.

On to `CC(C)(C)c1ccc(CN(Cc2cccc(NCC(=O)O)n2)S(=O)(=O)c2ccc(F)cc2)cc1` [Example 30, {6-[(4-tert-Butylbenzyl)(4-fluorobenzenesulfonyl)aminomethyl]pyridin-2-ylamino}-acetic acid hydrochloride], for which, in test [1], the inhibition constant Ki is 8.3 nM. For the same compound, a half-maximal effect in test [2] (EC50) was put at 2.7 nM.

Turning to `CC(C)(C)c1ccc(CN(Cc2cccc(NCC(=O)O)n2)S(=O)(=O)c2cccc(F)c2)cc1` [Example 31, {6-[(4-tert-Butylbenzyl)(3-fluorobenzenesulfonyl)aminomethyl]pyridin-2-ylamino}-acetic acid hydrochloride], in test [1], the inhibition constant Ki amounted to 8.6 nM. The concentration giving a half-maximal response (EC50) in test [2] was 6.1 nM.

For `CC(C)(C)c1ccc(CN(Cc2cccc(NCC(=O)O)n2)S(=O)(=O)c2ccc(Cl)cc2)cc1` [Example 33, {6-[(4-tert-Butylbenzyl)(4-chlorobenzenesulfonyl)aminomethyl]pyridin-2-ylamino}-acetic acid hydrochloride], the inhibition constant (Ki) in test [1] was 4.4 nM. Besides, in test [2], a half-maximal effect (EC50) was put at 4.4 nM.

Regarding `CC(C)(C)c1ccc(CN(Cc2cccc(NCC(=O)O)n2)S(=O)(=O)c2cccnc2)cc1` [Example 35, {6-[(4-tert-Butylbenzyl)(pyridin-3-ylsulfonyl)aminomethyl]pyridin-2-ylamino}acetic acid hydrochloride], the EC50 in test [2] amounted to 2.8 nM.

Consider `CCCCC(C)c1ccc(CN(Cc2cccc(NCC(=O)O)n2)S(=O)(=O)c2ccccn2)cc1` (stereo not drawn) [Example 40, (6-{[4-(1-Methylpentyl)benzyl](pyridin-2-ylsulfonyl)aminomethyl}pyridin-2-ylamino)-acetic acid], for which, in test [1], the Ki was found to be 5.3 nM. This compound had a 50% effective concentration (EC50) in test [2] of 2.8 nM.

On to `CCCCC(C)(C)c1ccc(CN(Cc2cccc(NCC(=O)O)n2)S(=O)(=O)c2ccncc2)cc1` [Example 43, (6-{[4-(1,1-Dimethylpentyl)benzyl](pyridin-4-ylsulfonyl)aminomethyl}pyridin-2-ylamino)acetic acid], for which, in test [1], the inhibition constant Ki was determined as 3.6 nM.

As to `CCCCC(C)(C)c1ccc(CN(Cc2cccc(NCC(=O)O)n2)S(=O)(=O)c2cccnc2)cc1` [Example 46, (6-{[4-(1,1-Dimethylpentyl)benzyl](pyridin-3-ylsulfonyl)aminomethyl}pyridin-2-ylamino)acetic acid], the Ki in test [1] worked out at 3.3 nM.

Take `CCCCC(C)(C)c1ccc(CN(Cc2cccc(NCC(=O)O)n2)S(=O)(=O)c2cccs2)cc1` [Example 48, (6-{[4-(1,1-Dimethylpentyl)benzyl](thiophen-2-ylsulfonyl)aminomethyl}pyridin-2-ylamino)acetic acid]: the inhibition constant (Ki) in test [1] was found to be 6.4 nM.

Regarding `CCCCC(C)(C)c1ccc(CN(Cc2cccc(NCC(=O)O)n2)S(=O)(=O)c2ccccn2)c(F)c1` [Example 55, (6-{[2-Fluoro-4-(1,1-dimethylpentyl)benzyl](pyridin-2-ylsulfonyl)aminomethyl}pyridin-2-ylamino)acetic acid], the inhibition constant Ki in test [1] was 2.1 nM. In test [2], this compound came in with an EC50 of 7 nM.

`CCCCC(C)(C)c1ccc(CN(Cc2cccc(NCC(=O)O)n2)S(=O)(=O)c2cccc(F)c2)cc1` [Example 60, (6-{(3-Fluorobenzenesulfonyl)[4-(1,1-dimethylpentyl)benzyl]aminomethyl}pyridin-2-ylamino)acetic acid] returned a concentration giving a half-maximal response (EC50) in test [2] of 5.5 nM.

Regarding `CCCCC[C@H](O)/C=C/[C@H]1[C@H](O)CC(=O)[C@@H]1C/C=C\CCCC(=O)O` [PGE2, Prostaglandin E2, reference compound], in test [3], the inhibition constant Ki came to 9 nM.

Values taken from patent US20120259123A1, “AMINOPYRIDINE COMPOUND” (UBE INDUSTRIES, LTD., priority 2009, published 2012).
